Experimental data taken from patent US20260101897A1, “PLANT ENVIRONMENTAL STRESS TOLERANCE IMPROVEMENT AGENT AND ENVIRONMENTAL STRESS TOLERANCE IMPROVEMENT METHOD” (priority 2022, published 2026).

Experiments:
Type in all cases: in vivo
turf (Manila grass) = test: Evaluation Example 8: tolerance to drying stress, leaf mortality; settings: for Leaf mortality rate: test compound 0.1 mM (12.5 mL), water supply stopped 7 days twice; for Leaf mortality rate / Environmental stress suppressing rate: drying stress Yes; for Environmental stress suppressing rate: test compound 0.1 mM
Description: (§1) EGT and GB were commercially available products, and pure water was used as a solvent.
In a plastic pot having a diameter of 135 mm and a height of 110 mm, 1 L of a raising seedling culture soil (manufactured by Kanetaki Co., Ltd.) was placed, and 100 mm square of turf (Manila grass) was planted per pot.
They were managed in a greenhouse set at room temperature of 25° C. 12.5 mL of EGT or 12.5 mL of GB was added about one month after planting, and water supply was stopped for 7 days thereafter. After cultivation under water supply for 7 days, drying stress was applied by stopping water supply for 7 days again.
The dead leaves of turf to which the drying stress was applied were counted, and the leaf mortality rate was evaluated as an index of physiological disorder. The leaf mortality rate and the environmental stress suppressing rate were calculated according to the following formulas.

[1] = tested on: Arabidopsis thaliana (Col-0); test: Evaluation Example 5: tolerance to excessive nutrient stress, leaf wilting; settings: for leaf wilting due to excessive nutrient stress, result in words: 0.5 mM; for Leaf wilting rate: test compound 0.5 mM (50 mL), excessive nutrient stress Yes (liquid fertilizer at 5-fold dilution), one day after stress; for Environmental stress suppressing rate: test compound 0.5 mM, excessive nutrient stress Yes
Description: as §1
(§2) One individual Arabidopsis thaliana (Col-0) was seeded in a plastic pot having a diameter of 60 mm and a height of 55 mm. Plastic deep dishes each having a diameter of 160 mm and a height of 28 mm were prepared, and four pots were respectively placed therein. As soil, 45 mL of vermiculite, 22.5 mL of granular soil (Kumiai horticultural soil), and 22.5 mL of vermiculite were placed in the pot in this order.
They were located in a growth chamber set at room temperature of 22° C., and the light period was 16 hours and the dark period was 8 hours. The light conditions were set such that the light intensity was 5000 lx in the central part under irradiation with the fluorescent lamp. Water supply was conducted from the bottom, and the water level was set at about 5 mm. On the 61st day after seeding, 50 mL of EGT or 50 mL of GB was added, and one day after that, a liquid fertilizer (HYPONeX, manufactured by Hyponex Japan Corp., Ltd.) was applied at a 5-fold dilution to give excessive nutrient stress.
The number of wilted leaves was evaluated one day after the excessive nutrient stress was applied. The leaf wilting rate and the environmental stress suppressing rate were calculated according to the following formulas.

[2] = tested on: Arabidopsis thaliana (Col-0); test: Evaluation Example 1: tolerance to salt stress, plant mortality
Description: L-(+)-ergothioneine (Examples 1 and 2 and Comparative Example 3) and glycine betaine (Comparative Examples 1 and 2 and Comparative Example 4) were prepared so as to have the concentrations shown in Table 1 below. EGT and GB were commercially available products, and pure water was used as a solvent.
Three individuals of Arabidopsis thaliana (Col-0) were seeded per well in a 24-well cell culture plate. Mixed salts for Murashige and Skoog medium (Fujifilm Wako Pure Chemical Industries, Ltd.) to which 1 wt. % of sucrose and 0.1 wt. % of agar-agar powder were added was used as a liquid medium, and the liquid medium was placed in a 2 mL per well.
They were located in a growth chamber set at room temperature of 22° C., and the light period was 16 hours and the dark period was 8 hours. The light conditions were set such that the light intensity was 5000 lx in the central part under irradiation with the fluorescent lamp. On the fourth day after seeding, EGT or GB was added so as to give a predetermined concentration, and 24 hours later, an aqueous sodium chloride solution was added so as to give a final 100 mM concentration, thereby giving a salt stress.
The number of surviving plants was counted on the 10th day after seeding, and the plant mortality rate was evaluated as an index of physiological disorder. The mortality rate and the environmental stress suppressing rate were calculated according to the following formulas.

[3] = tested on: Arabidopsis thaliana (Col-0); test: Evaluation Example 12: tolerance to intense light stress, leaf whitening; settings: for Leaf whitening rate: test compound 0.1 mM (12.5 mL), intense light stress Yes (LED light, 24 hours); for Environmental stress suppressing rate: test compound 0.1 mM, intense light stress Yes
Description: EGT and GB were commercially available products, and pure water was used as a solvent. In a plastic pot having a diameter of 60 mm and a height of 55 mm, 90 mL of culture soil (manufactured by Hanagokoro Co., Ltd.) was placed, and 4 individual Arabidopsis thaliana (Col-0) were seeded per pot. They were located in a growth chamber set at room temperature of 22° C., and the light period was 16 hours and the dark period was 8 hours. The light conditions were set such that the light intensity was 5000 lx in the central part under irradiation with the fluorescent lamp. 12.5 mL of EGT or 12.5 mL of GB was added on the 43rd day after seeding, and one day after that, intense light stress was applied by exposure for 24 hours under irradiation of LED light (manufactured by Esbaybulbs Co., Ltd.) with a light intensity set to 2000 μmol/m 2/sec. Whitened leaves of Arabidopsis thaliana subjected to intense light stress were counted, and the leaf whitening rate was evaluated as an index of physiological disorder. The leaf whitening rate and the environmental stress suppressing rate were calculated according to the following formulas. [formula] [formula]

[4] = tested on: Arabidopsis thaliana (Col-0); test: Evaluation Example 2: tolerance to drying stress, plant mortality
Description: A commercially available EGT was used, and pure water was used as a solvent.
as §2, with “six” for “four”
They were located in a growth chamber set at room temperature of 22° C., and the light period was 16 hours and the dark period was 8 hours. The light conditions were set such that the light intensity was 5000 lx in the central part under irradiation with the fluorescent lamp. Water supply was conducted from the bottom, and the water level was set at about 5 mm. EGT in an amount of 50 mL was added on the 22nd day after seeding, and drying stress was applied by stopping water supply for 18 days from 2 days after the addition of EGT.
The number of surviving plants was counted 18 days after the stoppage of water, and the plant mortality rate was evaluated as an index of physiological disorder. The mortality rate and the environmental stress suppressing rate were calculated according to the following formulas.

[5] = test compound 0.1 mM, salt stress Yes (100 mM sodium chloride)
[6] = test compound 0.1 mM, salt stress Yes (100 mM sodium chloride), 10th day after seeding
[7] = test compound 1 mM, salt stress No
[8] = test compound 1 mM, salt stress Yes (100 mM sodium chloride)
[9] = test compound 1 mM, salt stress Yes (100 mM sodium chloride), 10th day after seeding

Compound | Leaf mortality rate (turf (Manila grass)) [%] | Environmental stress suppressing rate (turf (Manila grass)) [%] | leaf wilting due to excessive nutrient stress, result in words [1] | Leaf wilting rate [1] [%] | Environmental stress suppressing rate [1] [%] | Environmental stress suppressing rate [2, 5] [%] | Mortality rate [2, 6] [%] | Mortality rate [2, 7] [%] | Environmental stress suppressing rate [2, 8] [%] | Mortality rate [2, 9] [%] | Leaf whitening rate [3] [%] | Environmental stress suppressing rate [3] [%] | survival under drying stress, result in words ([4]; EGT 1 mM, drying stress) | Mortality rate ([4]; test compound 1 mM (50 mL), drying stress Yes, water supply stopped 18 days) [%] | Environmental stress suppressing rate ([4]; test compound 1 mM, drying stress Yes) [%] | mortality rate due to drying stress, result in words (turf (Manila grass); 0.1 mM, drying stress) | death due to salt stress, result in words ([2]; GB treatment 1 mM and 0.1 mM, salt stress) | leaf whitening due to intense light stress, result in words ([3]; 0.1 mM, intense light stress)
C[N+](C)(C)[C@@H](Cc1c[nH]c(=S)[nH]1)C(=O)[O-] [EGT, L-(+)-ergothioneine] | 35 | 65 | suppressed | 24 | 76 | 48 | 39 | 0 | 81 | 14 | 8 | 78 | all Arabidopsis thaliana plants survived | 0 | 100 |  |  | 
C[N+](C)(C)CC(=O)[O-] [GB, glycine betaine, reference compound] | 100 | 0 | hardly suppressed | 89 | 11 | 0 | 79 | 0 | 0 | 75 | 40 | 0 |  |  |  | not suppressed | not suppressed | not suppressed
